Legend:
[1] = target: T1, recombinant human ALK5 (TGF-βR1) protein (Homo sapiens, UniProt P36897); assay: Biochemical ALK5 (TGF-βR1) assay to measure pKi (LANCE Ultra ULight kinase assay); details: apparent pKi, converted from pIC50 by Cheng-Prusoff
T1 construct: purchased Life Technologies PR9075A
T1 sequence (P36897 34-503): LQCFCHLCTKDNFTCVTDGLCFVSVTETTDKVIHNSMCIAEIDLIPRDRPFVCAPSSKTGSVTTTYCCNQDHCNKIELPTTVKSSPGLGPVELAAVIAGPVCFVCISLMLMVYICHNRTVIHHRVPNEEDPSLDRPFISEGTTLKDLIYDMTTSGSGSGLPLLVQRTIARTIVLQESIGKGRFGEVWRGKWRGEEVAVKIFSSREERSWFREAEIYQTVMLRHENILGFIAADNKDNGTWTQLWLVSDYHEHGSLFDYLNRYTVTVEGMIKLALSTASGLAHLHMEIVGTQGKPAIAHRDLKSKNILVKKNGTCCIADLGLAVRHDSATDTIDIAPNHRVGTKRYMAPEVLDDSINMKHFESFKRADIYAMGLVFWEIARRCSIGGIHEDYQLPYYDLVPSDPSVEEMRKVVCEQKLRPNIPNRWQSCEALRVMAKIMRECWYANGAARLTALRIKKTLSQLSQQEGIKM
Experimental: The assays were performed in a 384-well plate (24 columns×16 wells/rows). An Echo®550 Liquid Handler (Labcyte) was used to prepare various intermediate concentrations of compounds of the present disclosure in 100% DMSO. From the intermediate concentrations, a range of concentrations (from […] to 25 μM corresponding to volumes up to 105 nL) were prepared and ejected into a final assay plate to be used to create individual dose response curves for each of the subject compounds. To a separate column within the assay plate, 105 nL of DMSO in each well was used to establish a maximum assay signal. Additionally, 105 nL of 100 μM SD-208, a selective TGF-βR1 inhibitor (Catalog #S7624, Selleck Chemicals), was used in another column of wells to establish a minimal assay signal.
With a multidrop dispenser, 8 μL of enzyme mixture (1.25× final) was added to each well. […] The plate was then sealed with an adhesive seal and allowed to equilibrate for 60 minutes at room temperature.
Next, 2 μL of 125 μM ATP (5×final, 125 μM ATP prepared in assay buffer with 2 mM DTT) was added to the incubated mixtures, covered with a MicroClime® Environmental Lid (Product No. LLS-0310, Labcyte) and immediately transferred to 37° C. The reactions were allowed to proceed at 37° C. for 60 minutes before terminating with the addition of 10 μL of detection antibody (LANCE® (lanthanide chelate excite) Ultra Europium-anti-phospo-DNA Topoisomerase 2-alpha (Thr1342)) in detection mixture (12 mM EDTA, 4 nM detection antibody prepared in detection buffer (50 mM Tris-HCl, 150 mM NaCl, 0.5% BSA (Fraction V), pH 7.0)) at room temperature. The plate was then read on a Perkin Elmer EnVision Plate Reader using europium specific reader settings with excitation and emission wavelengths set to 320 or 340 nm and 665 nm, respectively.
For dose-response analyses, percent inhibition versus compound concentrations were plotted, and pIC50 values were determined from a 4-parameter robust fit model with GraphPad Prism V5 Software (GraphPad Software, Inc., La Jolla, CA). This model obtains pIC50 values by fitting the sigmoidal dose-response (variable slope) equation to the data. Results were expressed as pIC50 (negative logarithm of IC50) and subsequently converted to pKi (negative logarithm of dissociate constant, Ki) using the Cheng-Prusoff equation. The higher the value of pKi (lower value of Ki), the greater the inhibition of ALK5 activity.

[2] = test system: TGF-β-stimulated SMAD3 phosphorylation in BEAS-2B cells; assay: Cellular ALK5 potency assay, inhibition of TGF-β stimulated pSMAD3 formation in BEAS-2B cells; assay type: cell-based; details: Homo sapiens, pSMAD3, TGF-β 10 ng/mL, read-out: BEAS2B pIC50 (converted)
Experimental: The potency of compounds of the present disclosure for inhibition of TGF-β-stimulated SMAD3 phosphorylation was measured in BEAS-2B cells, a human lung epithelial cell line. TGF-β signals through activin receptor-like kinase 5 (ALK5) immediately prior to SMAD3 phosphorylation.
BEAS-2B cells were grown using 50% DMEM (Life Technologies) and 50% F-12 (Life Technologies) media, supplemented with 10% Fetal Bovine Serum (ATCC), 25 mM HEPES (Life Technologies), and 1×Pen-Strep (Life Technologies). Cells were cultured in a humidified incubator set at 37° C., 5% CO2, and trypsonized using 0.25% Trypsin with 0.5% polyvinylpyrrolidone (PVP).
For the assay, BEAS-2B cells were seeded at 7,500 cells/well (25 μL/well) in a 384-well plate and cultured overnight. Before dosing, growth media was aspirated and the wells were rinsed with HBSS Buffer (HBSS with Calcium and Magnesium, Life Technologies) supplemented with 25 mM HEPES (Life Technologies) and 1% Bovine Serum Albumin (Roche). Compounds were serially diluted in DMSO, then further diluted with supplemented HBSS Buffer (50 μL/well) to create a compound plate 3× of the final assay concentration, at 0.3% DMSO. The diluted compounds were then added to the cells (8 μL/well) and incubated at 37° C., 5% CO2 for 1 hour. After the compound incubation, TGF-β (R&D Systems) reconstituted in supplemented HBSS Buffer was added to the cells ([…], final concentration 10 ng/mL) and incubated for a further 30 minutes, after which the cells were immediately lysed with AlphaLISA lysis buffer (PerkinElmer). AlphaLISA Acceptor and Detector beads (PerkinElmer) were added 2 hours apart, then incubated overnight to be read the next day. The potency of the compound was determined through analysis of dose-dependent quantified changes in pSMAD3 signal from baseline (non-compound treated TGF-β stimulated cells). Data are expressed as pIC50 (negative decadic logarithm IC50) values.

Structure (SMILES): CC[C@H](C)OC(=O)C1CN(Cc2ccc(Nc3nccc(Nc4ccnc(-c5cccc(C)n5)n4)n3)cc2)CCN1 (mixture of isomers) [Compound 382, [rac-(1S)-1-methylpropyl] 4-[[4-[[4-[[2-(6-methyl-2-pyridyl)pyrimidin-4-yl]amino]pyrimidin-2-yl]amino]phenyl]methyl] piperazine-2-carboxylate]
- Ki [1]: 0.0398 to 0.316 nM
- IC50 [2]: 25.1 to 158 nM

Structure (SMILES): Cc1cccc(-c2nccc(Nc3ccnc(Nc4ccc(CN5CCCC(C(=O)NC6CCNC6)C5)cc4)n3)n2)n1 (racemic) [Compound 456, 1-[[4-[[4-[[2-(6-methyl-2-pyridyl)pyrimidin-4-yl]amino]pyrimidin-2-yl]amino]phenyl]methyl]-N-[rac-(3R)-pyrrolidin-3-yl]piperidine-3-carboxamide]
- Ki [1]: 0.0398 to 0.316 nM
- IC50 [2]: 25.1 to 158 nM

Structure (SMILES): Cc1cccc(-c2nccc(Nc3ccnc(Nc4ccc(N[C@H]5CCNC5)cc4)n3)n2)n1 [Compound 1, N4-[2-(6-methyl-2-pyridyl)pyrimidin-4-yl]-N2-[4-[[(3S)-pyrrolidin-3-yl]amino]phenyl]pyrimidine-2,4-diamine]
- Ki [1]: 0.0398 to 0.316 nM
- IC50 [2]: 25.1 to 158 nM

Structure (SMILES): Cc1cccc(-c2nccc(Nc3ccnc(Nc4cc(F)c(C(=O)N5CCNCC5)c(Cl)c4)n3)n2)n1 [Compound 2, [2-chloro-6-fluoro-4-[[4-[[2-(6-methyl-2-pyridyl)pyrimidin-4-yl]amino]pyrimidin-2-yl]amino]phenyl]-piperazin-1-yl-methanone]
- Ki [1]: 0.398 to 3.16 nM
- IC50 [2]: 25.1 to 158 nM

Structure (SMILES): CC(=O)N1CC(CNc2ccc(Nc3nccc(Nc4ccnc(-c5cccc(C)n5)n4)n3)cc2)C1 [Compound 3, 1-[3-[[4-[[4-[[2-(6-methyl-2-pyridyl)pyrimidin-4-yl]amino]pyrimidin-2-yl]amino]anilino]methyl]azetidin-1-yl]ethanone]
- Ki [1]: 0.398 to 3.16 nM
- IC50 [2]: 25.1 to 158 nM

Structure (SMILES): Cc1cccc(-c2nccc(Nc3ccnc(Nc4ccc(N5CCC(N6CCN(C)CC6)CC5)cc4)n3)n2)n1 [Compound 4, N2-[4-[4-(4-methylpiperazin-1-yl)-1-piperidyl]phenyl]-N4-[2-(6-methyl-2-pyridyl)pyrimidin-4-yl]pyrimidine-2,4-diamine]
- Ki [1]: 0.0398 to 0.316 nM
- IC50 [2]: 25.1 to 158 nM

Structure (SMILES): Cc1cccc(-c2nccc(Nc3ccnc(Nc4ccc(N)cc4)n3)n2)n1 [Compound 5, N2-(4-aminophenyl)-N4-[2-(6-methyl-2-pyridyl)pyrimidin-4-yl]pyrimidine-2,4-diamine]
- Ki [1]: 0.398 to 3.16 nM
- IC50 [2]: ≤ 20 nM

Structure (SMILES): COc1ccc(Nc2nccc(Nc3ccnc(-c4cccc(C)n4)n3)n2)cc1NC(=O)C1CCNCC1 [Compound 6, N-[2-methoxy-5-[[4-[[2-(6-methyl-2-pyridyl)pyrimidin-4-yl]amino]pyrimidin-2-yl]amino]phenyl]piperidine-4-carboxamide]
- Ki [1]: 0.0398 to 0.316 nM
- IC50 [2]: 25.1 to 158 nM

Structure (SMILES): Cc1cccc(-c2nccc(Nc3ccnc(Nc4ccc(N5CCSCC5)cc4)n3)n2)n1 [Compound 8, N4-[2-(6-methyl-2-pyridyl)pyrimidin-4-yl]-N2-(4-thiomorpholinophenyl) pyrimidine-2,4-diamine]
- Ki [1]: 0.0398 to 0.316 nM
- IC50 [2]: 25.1 to 158 nM

Structure (SMILES): CC[C@@H](C)OC(=O)CC1CNCCN1c1ccc(Nc2nccc(Nc3ccnc(-c4cccc(C)n4)n3)n2)cc1 (stereo partly drawn) [Compound 9, [(1R)-1-methylpropyl] 2-[1-[4-[[4-[[2-(6-methyl-2-pyridyl)pyrimidin-4-yl]amino]pyrimidin-2-yl]amino]phenyl]piperazin-2-yl]acetate]
- Ki [1]: 0.0398 to 0.316 nM
- IC50 [2]: 25.1 to 158 nM

Structure (SMILES): Cc1cccc(-c2nccc(Nc3ccnc(Nc4ccc(NC(=O)C5CCCNC5)cc4)n3)n2)n1 (stereo not drawn) [Compound 10, N-[4-[[4-[[2-(6-methyl-2-pyridyl)pyrimidin-4-yl]amino]pyrimidin-2-yl]amino]phenyl]piperidine-3-carboxamide]
- Ki [1]: 0.0398 to 0.316 nM
- IC50 [2]: ≤ 20 nM

Structure (SMILES): Cc1cccc(-c2nccc(Nc3ccnc(Nc4ccc(N5CCCC(C(=O)OC6CCNC6)C5)cc4)n3)n2)n1 (stereo not drawn) [Compound 11, pyrrolidin-3-yl 1-[4-[[4-[[2-(6-methyl-2-pyridyl)pyrimidin-4-yl]amino]pyrimidin-2-yl]amino]phenyl]piperidine-3-carboxylate]
- Ki [1]: 0.0398 to 0.316 nM
- IC50 [2]: 200 to 1260 nM

Structure (SMILES): CC(=O)N1CCN(S(=O)(=O)c2ccc(Nc3nccc(Nc4ccnc(-c5cccc(C)n5)n4)n3)cc2)CC1 [Compound 12, 1-[4-[4-[[4-[[2-(6-methyl-2-pyridyl)pyrimidin-4-yl]amino]pyrimidin-2-yl]amino]phenyl]sulfonylpiperazin-1-yl]ethanone]
- Ki [1]: 0.0398 to 0.316 nM
- IC50 [2]: 25.1 to 158 nM

Structure (SMILES): CC[C@@H](C)OC(=O)Cc1cc(Nc2nccc(Nc3ccnc(-c4cccc(C)n4)n3)n2)ccc1N1CCNCC1 [Compound 13, (R)-sec-butyl 2-(5-((4-((2-(6-methylpyridin-2-yl)pyrimidin-4-yl)amino)pyrimidin-2-yl)amino)-2-(piperazin-1-yl)phenyl)acetate]
- Ki [1]: 0.0398 to 0.316 nM
- IC50 [2]: 25.1 to 158 nM

Structure (SMILES): Cc1cccc(-c2nccc(Nc3ccnc(Nc4ccc(NC(=O)C5CCNCC5)cc4)n3)n2)n1 [Compound 14, N-(4-((4-((2-(6-methylpyridin-2-yl)pyrimidin-4-yl)amino)pyrimidin-2-yl)amino)phenyl)piperidine-4-carboxamide]
- Ki [1]: 0.0398 to 0.316 nM
- IC50 [2]: ≤ 20 nM

Structure (SMILES): Cc1cccc(-c2nccc(Nc3ccnc(Nc4ccc(N5CC6(CNC6)C5)cc4)n3)n2)n1 [Compound 15, N2-[4-(2,6-diazaspiro[3.3]heptan-2-yl)phenyl]-N4-[2-(6-methyl-2-pyridyl)pyrimidin-4-yl]pyrimidine-2,4-diamine]
- Ki [1]: 0.0398 to 0.316 nM
- IC50 [2]: 25.1 to 158 nM

Structure (SMILES): Cc1ccc(O)cc1-c1nccc(Nc2ccnc(Nc3ccc(N4CCC(N(C)C)CC4)cc3)n2)n1 [Compound 16, 3-[4-[[2-[4-[4-(dimethylamino)-1-piperidyl]anilino]pyrimidin-4-yl]amino]pyrimidin-2-yl]-4-methyl-phenol]
- Ki [1]: 0.398 to 3.16 nM
- IC50 [2]: 25.1 to 158 nM

Structure (SMILES): Cc1cccc(-c2nccc(Nc3ccnc(Nc4ccc(CN5CCC(C(=O)OC6CNC6)CC5)cc4)n3)n2)n1 [Compound 17, azetidin-3-yl 1-[[4-[[4-[[2-(6-methyl-2-pyridyl)pyrimidin-4-yl]amino]pyrimidin-2-yl]amino]phenyl]methyl] piperidine-4-carboxylate]
- Ki [1]: 0.0398 to 0.316 nM
- IC50 [2]: 25.1 to 158 nM

From US20230399312A1, “SUBSTITUTED PYRIMIDINES AND METHODS OF USE” (THERAVANCE BIOPHARMA R&D IP, LLC, priority 2020, published 2023)
